Where two headings read alike, the source gives them in different places.
Key:
Assay type in all cases: in vivo
[1] = system: morningglory (Ipomoea coccinea); experiment: Test C preemergence; conditions: for Plant response rating, Morningglory: scale 0 to 100, 0 no effect, 100 complete control
Method in brief: (§1)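 Preemergence: sow in loam-sand soil and treat. Postemergence: grow in peat-moss/vermiculite medium to 2–18 cm (1–4 leaves) and spray. Compound in non-phytotoxic solvent with surfactant; keep in greenhouse 13–15 d; score visually against controls, 0 (none) to 100 (full control).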

[2] = system: lambsquarters (Chenopodium album); experiment: Test C preemergence; conditions: for Plant response rating, Lambsquarters: scale 0 to 100, 0 no effect, 100 complete control
Method in brief: as §1

[3] = system: barnyardgrass (Echinochloa crus-galli); experiment: Test C preemergence; conditions: for Plant response rating, Barnyardgrass: scale 0 to 100, 0 no effect, 100 complete control
Method in brief: as §1

[4] = system: blackgrass (Alopecurus myosuroides); experiment: Test C preemergence; conditions: for Plant response rating, Blackgrass: scale 0 to 100, 0 no effect, 100 complete control
Method in brief: as §1

[5] = system: oilseed rape (Brassica napus); experiment: Test C preemergence; conditions: for Plant response rating, Oilseed Rape: scale 0 to 100, 0 no effect, 100 complete control
Method in brief: as §1

[6] = system: foxtail, giant (giant foxtail, Setaria faberii); experiment: Test C preemergence; conditions: for Plant response rating, Foxtail, Giant: scale 0 to 100, 0 no effect, 100 complete control
Method in brief: as §1

[7] = system: nutsedge, yellow (yellow nutsedge, Cyperus esculentus); experiment: Test C preemergence; conditions: for Plant response rating, Nutsedge, Yellow: scale 0 to 100, 0 no effect, 100 complete control
Method in brief: as §1

corn (Zea mays) = experiment: Test C preemergence; conditions: for Plant response rating, Corn: scale 0 to 100, 0 no effect, 100 complete control
Method in brief: as §1

[8] = system: johnsongrass (Sorghum halepense); experiment: Test C preemergence; conditions: for Plant response rating, Johnsongrass: scale 0 to 100, 0 no effect, 100 complete control
Method in brief: as §1

[9] = system: pigweed (Amaranthus retroflexus); experiment: Test C preemergence; conditions: for Plant response rating, Pigweed: scale 0 to 100, 0 no effect, 100 complete control
Method in brief: as §1

[10] = system: ragweed (common ragweed, Ambrosia elatior); experiment: Test A postemergence; conditions: Ambrosia artemisiifolia, post-emergence, 240 h; for pest or weed control at 125 g/ha: 125 g ai/ha; for pest or weed control at 500 g/ha: 500 g ai/ha
Method in brief: (§2)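 Seeded soil received test chemicals as a preemergence directed spray, and seedlings at one to two leaves, 2–10 cm tall, received them postemergence, in a non-phytotoxic, surfactant-containing solvent mixture. Pots were held in a greenhouse for approximately 10 d, then rated for injury from 0, no effect, to 100, complete control.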

[11] = system: blackgrass (Alopecurus myosuroides); experiment: Test A postemergence; conditions: Alopecurus myosuroides, post-emergence, 240 h; for pest or weed control at 125 g/ha: 125 g ai/ha; for pest or weed control at 500 g/ha: 500 g ai/ha
Method in brief: as §2

[12] = system: wheat (Triticum aestivum); experiment: Test A postemergence; conditions: Triticum aestivum, post-emergence, 240 h; for plant injury at 125 g/ha: 125 g ai/ha; for plant injury at 500 g/ha: 500 g ai/ha
Method in brief: as §2

[13] = system: giant foxtail (Setaria faberii); experiment: Test A postemergence; conditions: Setaria faberi, post-emergence, 240 h; for pest or weed control at 125 g/ha: 125 g ai/ha; for pest or weed control at 500 g/ha: 500 g ai/ha
Method in brief: as §2

[14] = system: ryegrass, Italian (Italian ryegrass, Lolium multiflorum); experiment: Test A postemergence; conditions: Lolium multiflorum, post-emergence, 240 h; for pest or weed control at 125 g/ha: 125 g ai/ha; for pest or weed control at 500 g/ha: 500 g ai/ha
Method in brief: as §2

[15] = 31 g ai/ha, 0 is no effect, 100 is complete control
[16] = postemergence, visual injury vs untreated controls after approx. 10 d, 0 = no effect, 100 = complete control, read-out: Ragweed plant response rating (0 to 100 scale)
[17] = postemergence, 0 to 100 scale, 0 is no effect, 100 is complete control, read-out: Ragweed plant response rating
[18] = postemergence, visual injury vs untreated controls after approx. 10 d, 0 = no effect, 100 = complete control, read-out: Blackgrass plant response rating (0 to 100 scale)
[19] = postemergence, 0 to 100 scale, 0 is no effect, 100 is complete control, read-out: Blackgrass plant response rating
[20] = postemergence, visual injury vs untreated controls after approx. 10 d, 0 = no effect, 100 = complete control, read-out: Wheat plant response rating (0 to 100 scale)
[21] = postemergence, 0 to 100 scale, 0 is no effect, 100 is complete control, read-out: Wheat plant response rating
[22] = postemergence, visual injury vs untreated controls after approx. 10 d, 0 = no effect, 100 = complete control, read-out: Foxtail, Giant plant response rating (0 to 100 scale)
[23] = postemergence, 0 to 100 scale, 0 is no effect, 100 is complete control, read-out: Foxtail, Giant plant response rating
[24] = postemergence, visual injury vs untreated controls after approx. 10 d, 0 = no effect, 100 = complete control, read-out: Ryegrass, Italian plant response rating (0 to 100 scale)
[25] = postemergence, 0 to 100 scale, 0 is no effect, 100 is complete control, read-out: Ryegrass, Italian plant response rating

CN1C[C@H](c2ccc(C(F)(F)F)cc2)[C@@H](C(=O)Nc2ccccc2F)C1=O [Compound 622, (3S,4S)—N-(2-fluorophenyl)-1-methyl-2-oxo-4-[4-(trifluoromethyl)phenyl]-3-pyrrolidinecarboxamide]
Plant response rating (scale of 0 to 100), Morningglory [1, 15]: 0 | Plant response rating, Morningglory ([1]; 62 g ai/ha): 0 | Plant response rating, Morningglory ([1]; 125 g ai/ha): 25 | Plant response rating, Morningglory ([1]; 250 g ai/ha): 20 | Plant response rating (scale of 0 to 100), Lambsquarters [2, 15]: 75 | Plant response rating, Lambsquarters ([2]; 62 g ai/ha): 35 | Plant response rating, Lambsquarters ([2]; 125 g ai/ha): 70 | Plant response rating, Lambsquarters ([2]; 250 g ai/ha): 75 | Plant response rating (scale of 0 to 100), Barnyardgrass [3, 15]: 90 | Plant response rating, Barnyardgrass ([3]; 62 g ai/ha): 95 | Plant response rating, Barnyardgrass ([3]; 125 g ai/ha): 90 | Plant response rating, Barnyardgrass ([3]; 250 g ai/ha): 95 | Plant response rating (scale of 0 to 100), Blackgrass [4, 15]: 0 | Plant response rating, Blackgrass ([4]; 62 g ai/ha): 0 | Plant response rating, Blackgrass ([4]; 125 g ai/ha): 80 | Plant response rating, Blackgrass ([4]; 250 g ai/ha): 85 | Plant response rating (scale of 0 to 100), Oilseed Rape [5, 15]: 60 | Plant response rating, Oilseed Rape ([5]; 62 g ai/ha): 85 | Plant response rating, Oilseed Rape ([5]; 125 g ai/ha): 85 | Plant response rating, Oilseed Rape ([5]; 250 g ai/ha): 85 | Plant response rating (scale of 0 to 100), Foxtail, Giant [6, 15]: 90 | Plant response rating, Foxtail, Giant ([6]; 62 g ai/ha): 90 | Plant response rating, Foxtail, Giant ([6]; 125 g ai/ha): 95 | Plant response rating, Foxtail, Giant ([6]; 250 g ai/ha): 95 | Plant response rating (scale of 0 to 100), Nutsedge, Yellow [7, 15]: 0 | Plant response rating, Nutsedge, Yellow ([7]; 62 g ai/ha): 0 | Plant response rating, Nutsedge, Yellow ([7]; 125 g ai/ha): 0 | Plant response rating, Nutsedge, Yellow ([7]; 250 g ai/ha): 0 | Plant response rating (scale of 0 to 100), Corn (corn (Zea mays); [15]): 5 | Plant response rating, Corn (corn (Zea mays); 62 g ai/ha): 45 | Plant response rating, Corn (corn (Zea mays); 125 g ai/ha): 85 | Plant response rating, Corn (corn (Zea mays); 250 g ai/ha): 80 | Plant response rating (scale of 0 to 100), Johnsongrass [8, 15]: 25 | Plant response rating, Johnsongrass ([8]; 62 g ai/ha): 60 | Plant response rating, Johnsongrass ([8]; 125 g ai/ha): 50 | Plant response rating, Johnsongrass ([8]; 250 g ai/ha): 65 | Plant response rating (scale of 0 to 100), Pigweed [9, 15]: 75 | Plant response rating, Pigweed ([9]; 62 g ai/ha): 85 | Plant response rating, Pigweed ([9]; 125 g ai/ha): 85 | Plant response rating, Pigweed ([9]; 250 g ai/ha): 90 | pest or weed control at 125 g/ha ([10]; postemergence, visual rating after approx. 10 d, 0 to 100 scale (0 no effect, 100 complete control), read-out: Plant response rating, Ragweed): 0% | pest or weed control at 500 g/ha ([10]; Postemergence, 0 to 100 scale where 0 is no effect and 100 is complete control, read-out: Plant response rating, Ragweed): 40% | pest or weed control at 125 g/ha ([11]; postemergence, visual rating after approx. 10 d, 0 to 100 scale (0 no effect, 100 complete control), read-out: Plant response rating, Blackgrass): 30% | pest or weed control at 500 g/ha ([11]; Postemergence, 0 to 100 scale where 0 is no effect and 100 is complete control, read-out: Plant response rating, Blackgrass): 60% | plant injury at 125 g/ha ([12]; postemergence, visual rating after approx. 10 d, 0 to 100 scale (0 no effect, 100 complete control), read-out: Plant response rating, Wheat): 30% | plant injury at 500 g/ha ([12]; Postemergence, 0 to 100 scale where 0 is no effect and 100 is complete control, read-out: Plant response rating, Wheat): 70% | pest or weed control at 125 g/ha ([13]; postemergence, visual rating after approx. 10 d, 0 to 100 scale (0 no effect, 100 complete control), read-out: Plant response rating, Foxtail, Giant): 80% | pest or weed control at 500 g/ha ([13]; Postemergence, 0 to 100 scale where 0 is no effect and 100 is complete control, read-out: Plant response rating, Foxtail, Giant): 90% | pest or weed control at 125 g/ha ([14]; postemergence, visual rating after approx. 10 d, 0 to 100 scale (0 no effect, 100 complete control), read-out: Plant response rating, Ryegrass, Italian): 30% | pest or weed control at 500 g/ha ([14]; Postemergence, 0 to 100 scale where 0 is no effect and 100 is complete control, read-out: Plant response rating, Ryegrass, Italian): 50%

CCc1ccc([C@H]2CNC(=O)[C@@H]2C(=O)Nc2ccccc2SC)cc1 [Compound 1178]
pest or weed control at 125 g/ha [10, 16]: 0% | pest or weed control at 500 g/ha [10, 17]: 20% | pest or weed control at 125 g/ha [11, 18]: 0% | pest or weed control at 500 g/ha [11, 19]: 20% | plant injury at 125 g/ha [12, 20]: 0% | plant injury at 500 g/ha [12, 21]: 0% | pest or weed control at 125 g/ha [13, 22]: 0% | pest or weed control at 500 g/ha [13, 23]: 30% | pest or weed control at 125 g/ha [14, 24]: 0% | pest or weed control at 500 g/ha [14, 25]: 0%

CSc1ccccc1NC(=O)[C@H]1C(=O)N(C)C[C@@H]1c1ccc(C(F)(F)F)nc1 [Compound 1198]
pest or weed control at 125 g/ha [10, 16]: 0% | pest or weed control at 500 g/ha [10, 17]: 30% | pest or weed control at 125 g/ha [11, 18]: 20% | pest or weed control at 500 g/ha [11, 19]: 60% | plant injury at 125 g/ha [12, 20]: 0% | plant injury at 500 g/ha [12, 21]: 60% | pest or weed control at 125 g/ha [13, 22]: 80% | pest or weed control at 500 g/ha [13, 23]: 90% | pest or weed control at 125 g/ha [14, 24]: 0% | pest or weed control at 500 g/ha [14, 25]: 30%

CN1C[C@H](c2ccc(C#N)cc2)[C@@H](C(=O)Nc2ccccc2F)C1=O [Compound 1207]
pest or weed control at 125 g/ha [10, 16]: 0% | pest or weed control at 500 g/ha [10, 17]: 30% | pest or weed control at 125 g/ha [11, 18]: 0% | pest or weed control at 500 g/ha [11, 19]: 0% | plant injury at 125 g/ha [12, 20]: 0% | plant injury at 500 g/ha [12, 21]: 0% | pest or weed control at 125 g/ha [13, 22]: 50% | pest or weed control at 500 g/ha [13, 23]: 90% | pest or weed control at 125 g/ha [14, 24]: 0% | pest or weed control at 500 g/ha [14, 25]: 0%

CN1C[C@H](c2ccc(C#N)cc2)[C@@H](C(=O)Nc2cccc(F)c2F)C1=O [Compound 1208]
pest or weed control at 125 g/ha [10, 16]: 0% | pest or weed control at 500 g/ha [10, 17]: 40% | pest or weed control at 125 g/ha [11, 18]: 0% | pest or weed control at 500 g/ha [11, 19]: 0% | plant injury at 125 g/ha [12, 20]: 0% | plant injury at 500 g/ha [12, 21]: 20% | pest or weed control at 125 g/ha [13, 22]: 70% | pest or weed control at 500 g/ha [13, 23]: 90% | pest or weed control at 125 g/ha [14, 24]: 0% | pest or weed control at 500 g/ha [14, 25]: 0%

From patent publication US12077503B2, “Substituted cyclic amides and their use as herbicides” (FMC CORPORATION, priority 2015, dated 2024)
